The results in this text go back to patent US6995153B2, “Fused bicyclic pyrimidine derivatives” (Kyorin Pharmaceutical. Co., Ltd., priority 2002, dated 2006).

Each structure is given as a SMILES string.

Data set [1] has as its target T1, NK1 receptor (Cavia porcellus, UniProt P30547).
T1 construct: from tissue; host or cells: isolated guinea pig ileum
Briefly: Test for NK1 receptor antagonist: substance P concentration-response in isolated guinea pig ileum, Schild analysis. The note with it: against substance P, 10 min pretreatment, method of Schild. As for the experimental part: (1) Test for NK1 Receptor Antagonist
The method used was according to the method proposed by S. Dion et al.(Dion et al., Life Sciences 41(1987): 2269), to which minor modifications were made.
Guinea pigs were stunned by a blow on the head and were exsanguinated from the carotid artery and ilea were isolated. The ileum was mounted in an organ bath containing Tyrode's solution which was maintained at 32° C., and gased with 95% O2 and 5% CO2. The ileum was subjected to a resting tension of 1-gram and allowed to equilibrate for 20 minutes before the experiment was started. As a control, a concentration-response curve for substance P in the absence of any of test compounds was used. The NK1 receptor antagonist activity of each test compound was determined by a concentration-response curve obtained by pretreating at least three concentrations of the test compound for 10 minutes and subsequently applying substance P in a cumulative manner. The Kb values were determined according to the method of Schild and the results are shown in Table 1 (Schild Brit. J. Pharmacol. 14(1959): 49).
The composition of the Tyrode's solution was as follows: NaCl=136.9, KCl=2.7, CaCl2.2H2O=2.5, MgCl2.6H2O=1.0, NaH2PO4.2H2O=0.4, NaHCO3=11.9, glucose=11.1(mmol/L)

In data set [2] the test system is Guinea pigs. Nature of the data set: Cystometry test on guinea pigs with cut spinal cord (effective bladder capacity). The class given is in vivo. The note with it: guinea pig. From the text: (2) Cystometry Test on Guinea Pigs
The method used was according to the method proposed by J S. Peterson et al. (Peterson J S. et al., J. Pharmacol. Methods 21(1989): 231), to which minor modifications were made.
Guinea pigs were anesthetized with halothane and the tenth thoracic spinal cord was cut in each animal. Subsequently, both ureters were ligated and were cut on the kidney-side. Polyethylene catheters were inserted into the bladder to provide an injection pathway for physiological saline and a pathway for the measurement of intravesical pressure. Each animal was restricted in a Ballman cage and was left for more than 2 hours. Subsequently, room-temperature saline was injected through the bladder catheter into the bladder at a rate of 6 mL/hr to conduct a cystometry test. Once the effective bladder capacity was stabilized, a test compound was intravenously administered into the jugular vein. The effective bladder capacity is defined as the volume of saline injected from one urination to the next. The effect of each test compound was determined as the increase in the average bladder volume, which was determined based on the average bladder volume measured 30 minutes prior to the administration of the test compound and the average bladder volume measured every 30 minutes after the administration of the test compound.

T1 sequence (P30547 whole entry): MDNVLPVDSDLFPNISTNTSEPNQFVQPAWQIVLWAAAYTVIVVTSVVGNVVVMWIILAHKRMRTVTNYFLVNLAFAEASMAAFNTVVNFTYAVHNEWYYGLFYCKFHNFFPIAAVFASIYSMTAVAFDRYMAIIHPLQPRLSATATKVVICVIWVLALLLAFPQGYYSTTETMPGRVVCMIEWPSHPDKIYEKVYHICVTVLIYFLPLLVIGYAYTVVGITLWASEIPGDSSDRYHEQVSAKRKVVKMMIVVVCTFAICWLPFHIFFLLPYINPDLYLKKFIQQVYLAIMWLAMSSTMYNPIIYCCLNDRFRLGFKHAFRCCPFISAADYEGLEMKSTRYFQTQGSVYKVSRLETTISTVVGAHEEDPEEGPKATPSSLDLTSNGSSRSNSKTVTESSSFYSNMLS

As to `Cc1ccccc1-c1nc(N2CCN(C)CC2)nc2c1C(=O)N(Cc1cc(C(F)(F)F)cc(C(F)(F)F)c1)CCCO2` [Example 44, 5-[3,5-bis(trifluoromethyl)benzyl]-7-(2-methylphenyl)-9-(4-methylpiperazine-1-yl)-6-oxo-2,3,4,5-tetrahydro-6H-pyrimido[4,5-b][1,5]oxazocine], the Kb (as a rule, the equilibrium dissociation constant of an antagonist, usually derived from a functional assay) in data set [1] came to 0.00631 nM. For `Cc1ccccc1-c1nc(N2CCS(=O)(=O)CC2)nc2c1C(=O)N(Cc1cc(C(F)(F)F)cc(C(F)(F)F)c1)CCCO2` [Example 20, 5-[3,5-bis(trifluoromethyl)benzyl]-9-(1,1-dioxothiomorpholine-4-yl)-7-(2-methylphenyl)-6-oxo-2,3,4,5-tetrahydro-6H-pyrimido[4,5-b][1,5]oxazocine], the “Increase in bladder capacity (%)” value in data set [2] (0.3 mg/kg i.v.) was determined as 40.4%. For the same molecule, the Kb in data set [1] came out at 0.0794 nM. Regarding `O=C1c2c(nc(N3CCC(N4CCCC4)CC3)nc2-c2ccc(F)cc2)OCCCN1Cc1cc(C(F)(F)F)cc(C(F)(F)F)c1` [Example 13, 5-[3,5-bis(trifluoromethyl)benzyl]-7-(4-fluorophenyl)-6-oxo-9-[4-(pyrrolidine-1-yl)piperidine-1-yl]-2,3,4,5-tetrahydro-6H-pyrimido[4,5-b][1,5]oxazocine], the Kb in data set [1] stood at 0.217 nM. On the same count and under the same terms, with `Cc1ccccc1-c1nc(N2CCC(N(C)C)C2)nc2c1C(=O)N(Cc1cc(C(F)(F)F)cc(C(F)(F)F)c1)CCCO2` (centres unmarked) [Example 25, 5-[3,5-bis(trifluoromethyl)benzyl]-9-[3-(dimethylamino)pyrrolidine-1-yl]-7-(2-methylphenyl)-6-oxo-2,3,4,5-tetrahydro-6H-pyrimido[4,5-b][1,5]oxazocine] the figure was 0.427 nM. In the case of `CC(=O)N1CCN(c2nc3c(c(-c4ccccc4C)n2)C(=O)N(Cc2cc(C(F)(F)F)cc(C(F)(F)F)c2)CCCO3)CC1` [Example 16, 9-(4-acetylpiperazine-1-yl)-5-[3,5-bis(trifluoromethyl)benzyl]-7-(2-methylphenyl)-6-oxo-2,3,4,5-tetrahydro-6H-pyrimido[4,5-b][1,5]oxazocine], the melting point (in general, the temperature of the solid-liquid transition) is 160.5 to 163.5 °C. Also, in data set [2] (0.3 mg/kg i.v.), the “Increase in bladder capacity (%)” value was 59.4%. In addition, the antagonist dissociation constant (Kb) in data set [1] turned out to be 0.105 nM. Consider `CC(=O)NC1CCN(c2nc3c(c(-c4ccccc4C)n2)C(=O)N(Cc2cc(C(F)(F)F)cc(C(F)(F)F)c2)CCCO3)C1` (centres unmarked) [Example 27, 5-[3,5-bis(trifluoromethyl)benzyl]-9-[3-(acetylamino)pyrrolidine-1-yl]-7-(2-methylphenyl)-6-oxo-2,3,4,5-tetrahydro-6H-pyrimido[4,5-b][1,5]oxazocine], for which the antagonist dissociation constant (Kb) in data set [1] is 0.44 nM. On the same count and under the same terms, with `CC(=O)NC1CCN(c2nc3c(c(-c4ccccc4C)n2)C(=O)N(Cc2cc(C(F)(F)F)cc(C(F)(F)F)c2)CCCO3)CC1` [Example 37, 9-[4-(acetylamino)piperidine-1-yl]-5-[3,5-bis(trifluoromethyl)benzyl]-7-(2-methylphenyl)-6-oxo-2,3,4,5-tetrahydro-6H-pyrimido[4,5-b][1,5]oxazocine] the figure was 0.151 nM; with `Cc1ccccc1-c1nc(N2CCC(NS(C)(=O)=O)CC2)nc2c1C(=O)N(Cc1cc(C(F)(F)F)cc(C(F)(F)F)c1)CCCO2` [Example 38, 5-[3,5-bis(trifluoromethyl)benzyl]-9-[4-(methylsulfonylamino)piperidine-1-yl]-7-(2-methylphenyl)-6-oxo-2,3,4,5-tetrahydro-6H-pyrimido[4,5-b][1,5]oxazocine], 0.214 nM; with `Cc1ccccc1-c1nc(N2CCCN(C)CC2)nc2c1C(=O)N(Cc1cc(C(F)(F)F)cc(C(F)(F)F)c1)CCCO2` [Example 26, 5-[3,5-bis(trifluoromethyl)benzyl]-9-(4-methylhomopiperazine-1-yl)-7-(2-methylphenyl)-6-oxo-2,3,4,5-tetrahydro-6H-pyrimido[4,5-b][1,5]oxazocine], 0.398 nM. Turning to `CC(=O)N1CCCN(c2nc3c(c(-c4ccccc4C)n2)C(=O)N(Cc2cc(C(F)(F)F)cc(C(F)(F)F)c2)CCCO3)CC1` [Example 41, 9-(4-acetylhomopiperazine-1-yl)-5-[3,5-bis(trifluoromethyl)benzyl]-7-(2-methylphenyl)-6-oxo-2,3,4,5-tetrahydro-6H-pyrimido[4,5-b][1,5]oxazocine], the “Increase in bladder capacity (%)” value in data set [2] (0.3 mg/kg i.v.) amounted to 36.8%. In data set [1], the antagonist dissociation constant (Kb) amounted to 0.308 nM. For `Cc1ccc(-c2c3n(c(=O)c4ncccc24)CC[C@@H](C)CN(Cc2cc(C(F)(F)F)cc(C(F)(F)F)c2)C3=O)cc1` [TAK-637, reference compound], the “Increase in bladder capacity (%)” value in data set [2] (0.3 mg/kg i.v.) came to 12.0%; in data set [2] (1 mg/kg i.v.), 23.8%; in data set [2] (3 mg/kg i.v.), 20.5%. The Kb in data set [1] amounted to 0.269 nM. Turning to `Cc1ccccc1-c1nc(N2CCN(c3ncccn3)CC2)nc2c1C(=O)N(Cc1cc(C(F)(F)F)cc(C(F)(F)F)c1)CCCO2` [Example 14, 5-[3,5-bis(trifluoromethyl)benzyl]-7-(2-methylphenyl)-6-oxo-9-[4-(pyrimidine-2-yl)piperazine-1-yl]-2,3,4,5-tetrahydro-6H-pyrimido[4,5-b][1,5]oxazocine], the Kb in data set [1] turned out to be 0.798 nM. On to `COc1ccccc1-c1nc(N2CCS(=O)(=O)CC2)nc2c1C(=O)N(Cc1cc(C(F)(F)F)cc(C(F)(F)F)c1)CCCO2` [Example 43, 5-[3,5-bis(trifluoromethyl)benzyl]-9-(1,1-dioxothiomorpholine-4-yl)-7-(2-methoxyphenyl)-6-oxo-2,3,4,5-tetrahydro-6H-pyrimido[4,5-b][1,5]oxazocine], for which, in data set [1], the Kb turned out to be 0.123 nM. On the same count and under the same terms, the value for `Cc1ccccc1-c1nc(-n2ccnc2)nc2c1C(=O)N(Cc1cc(C(F)(F)F)cc(C(F)(F)F)c1)CCCO2` [Example 18, 5-[3,5-bis(trifluoromethyl)benzyl]-9-(imidazole-1-yl)-7-(2-methylphenyl)-6-oxo-2,3,4,5-tetrahydro-6H-pyrimido[4,5-b][1,5]oxazocine] was 0.459 nM. Regarding `COc1ccccc1-c1nc(N2CCN(C(C)=O)CC2)nc2c1C(=O)N(Cc1cc(C(F)(F)F)cc(C(F)(F)F)c1)CCCO2` [Example 29, 9-(4-acetylpiperazine-1-yl)-5-[3,5-bis(trifluoromethyl)benzyl]-7-(2-methoxyphenyl)-6-oxo-2,3,4,5-tetrahydro-6H-pyrimido[4,5-b][1,5]oxazocine], in data set [1], the Kb turned out to be 0.1 nM.

With `O=C1c2c(nc(N3CCOCC3)nc2-c2ccccc2F)OCCCN1Cc1cc(C(F)(F)F)cc(C(F)(F)F)c1` [Example 2, 5-[3,5-bis(trifluoromethyl)benzyl]-7-(2-fluorophenyl)-9-(morpholine-4-yl)-6-oxo-2,3,4,5-tetrahydro-6H-pyrimido[4,5-b][1,5]oxazocine], in data set [1], the antagonist dissociation constant (Kb) came out at 0.294 nM.
